# Results: ChEMBL document CHEMBL5696439 (Cancer Res, 2010)
# Active and inactive are the calls of the source. The calls are words filed in the database; no cut-off is given here.
# How the values were obtained:
# [1] = target: Fibroblast growth factor receptor 3 (Homo sapiens) (UniProt P22607); test: Inhibition of recombinant human His-tagged FGFR3 (399-806 residues) expressed in insect cells at 2 uM using Tyr 04 as substrate measured after 1 hr by Z'-LYTE assay relative to control; conditions: Insect cell
# [2] = target: cGMP-dependent protein kinase 1 (Homo sapiens) (UniProt Q13976); test: Inhibition of recombinant human full length GST-tagged PRKG1 expressed in baculovirus expression system at 2 uM using Ser/Thr 01 as substrate measured after 1 hr by Z'-LYTE assay relative to control
# [3] = target: Mitogen-activated protein kinase kinase kinase kinase 5 (Homo sapiens) (UniProt Q9Y4K4); test: Inhibition of recombinant human full length GST-tagged MAP4K5 expressed in insect cells at 2 uM using Ser/Thr 07 as substrate measured after 1 hr by Z'-LYTE assay relative to control; conditions: Insect cell
# MDA-MB-361 [4] = test: Antitumor activity against human MDA-MB-361 cells xenografted in female nude mouse model assessed as suppression in P-AKT at S473 level at 6 to 12 mg/kg, po qd administered as 5 days on/2 days off regimen for 4 cycles by immunoblot analysis; format: functional, organism-based; conditions: dose 6-12 mg/kg, time 28.0 day
# [5] = target: Aurora kinase C (Homo sapiens) (UniProt Q9UQB9); test: Inhibition of recombinant human full-length GST-tagged AURKC expressed in insect cells at 2 uM using Ser/Thr 19 as substrate measured after 1 hr by Z'-LYTE assay relative to control; conditions: Insect cell
# HEK293 = test: Antiproliferative activity against HEK293 cells assessed as reduction in polysomes at 0.5 micromol/L incubated for 16 hrs; format: functional, Homo sapiens; conditions: dose 0.5 µmol/L
# MDA-MB-361 [6] = test: Induction of apoptosis in human MDA-MB-361 cells assessed as decrease in AKT phosphorylation at S473 level at 0.05 to 5 micromol/L incubated for 48 hrs by Western blot analysis; format: functional, cell-based; conditions: dose 0.05-5 µmol/L
# MDA-MB-361 [7] = test: Induction of apoptosis in human MDA-MB-361 cells assessed as induction in cell death at 3 micromol/L incubated for 48 hrs by FACS analysis relative to control; format: functional; conditions: dose 3 µmol/L, at 3 µM
# [8] = test system: Epidermal growth factor receptor (Homo sapiens), P00533 [L861Q]; test: Inhibition of recombinant human GST-tagged EGFR L861Q mutant (668-1210 residues) expressed in insect cells at 2 uM using Tyr 04 as substrate measured after 1 hr by Z'-LYTE assay relative to control; conditions: Insect cell
# [9] = target: Tyrosine-protein kinase Yes (Homo sapiens) (UniProt P07947); test: Inhibition of recombinant human full length GST-tagged YES1 expressed in insect cells at 2 uM using Ser/Thr 07 as substrate measured after 1 hr by Z'-LYTE assay relative to control; conditions: Insect cell
# [10] = target: cGMP-dependent protein kinase 2 (Homo sapiens) (UniProt Q13237); test: Inhibition of recombinant human full length GST-tagged PRKG2 expressed in insect cells at 2 uM using Ser/Thr 01 as substrate measured after 1 hr by Z'-LYTE assay relative to control; conditions: Insect cell
# [11] = target: Serine/threonine-protein kinase 4 (Homo sapiens) (UniProt Q13043); test: Inhibition of recombinant human full length GST-tagged STK4 expressed in insect cells at 2 uM using Ser/Thr 07 as substrate measured after 1 hr by Z'-LYTE assay relative to control; conditions: Insect cell
# A549 = test: Induction of apoptosis in human A549 cells assessed as reduction in S phase at 1 micromol/L incubated for 24 hrs by FACS analysis; format: functional, cell-based; conditions: dose 1.0 µmol/L
# LNCaP = test: Induction of apoptosis in human LNCaP cells assessed as increase in PARP cleavage at 0.3 to 3 micromol/L incubated for 48 hrs by Western blot analysis; format: functional, cell-based; conditions: dose 0.3-3 µmol/L
# MDA-MB-361 [12] = test: Induction of apoptosis in human MDA-MB-361 cells assessed as little increase in G1 phase at 5 micromol/L incubated for 12 hrs by FACS analysis relative to control; format: functional, cell-based; conditions: dose 5.0 µmol/L
# [13] = target: Casein kinase I isoform gamma-1 (Homo sapiens) (UniProt Q9HCP0); test: Inhibition of recombinant human full-length GST-tagged CSNK1G1 expressed in insect cells at 2 uM using Ser/Thr 05 as substrate measured after 1 hr by Z'-LYTE assay relative to control; conditions: Insect cell
# [14] = target: Activin receptor type-1B (Homo sapiens) (UniProt P36896); test: Inhibition of recombinant human GST-tagged ACVR1B (150 to 505 residues) expressed in insect cells at 2 uM using Ser/Thr 16 as substrate measured after 1 hr by Z'-LYTE assay relative to control; conditions: Insect cell
# [15] = target: Calcium/calmodulin-dependent protein kinase type IV (Homo sapiens) (UniProt Q16566); test: Inhibition of recombinant human full-length GST-tagged CAMK4 expressed in E. coli at 2 uM using Ser/Thr 13 as substrate measured after 1 hr by Z'-LYTE assay relative to control
# mTORC2 (Homo sapiens) = mTORC2 (Homo sapiens) (UniProt P42345+Q6R327+Q9BVC4+Q9BPZ7); conditions: PC3MM2, dose 0.1-1 µM, time 6.0 hrs
# HCT-116 = test: Induction of apoptosis in human HCT-116 cells assessed as reduction in S phase at 1 micromol/L incubated for 24 hrs by FACS analysis; format: functional, cell-based; conditions: dose 1.0 µmol/L
# NCI-H1975 = test: Antiproliferative activity against human NCI-H1975 cells assessed as cell growth inhibition incubated for 24 hrs by MTS assay; format: functional, cell-based; conditions: NCI-H1975, 24 h
# [16] = target: G protein-coupled receptor kinase 3 (Homo sapiens) (UniProt P35626); test: Inhibition of recombinant human full-length GST-tagged ADRBK2 expressed in insect cells at 2 uM using Ser/Thr 16 as substrate measured after 1 hr by Z'-LYTE assay relative to control; conditions: Insect cell
# MDA-MB-361 [17] = test: Antitumor activity against human MDA-MB-361 cells xenografted in female nude mouse model assessed as suppression in P-S6K at T389 level at 50 mg/kg, po qd administered as 5 days on/2 days off regimen for 4 cycles by immunoblot analysis; format: functional, organism-based; conditions: time 28.0 day
# [18] = target: Serine/threonine-protein kinase pim-2 (Homo sapiens) (UniProt Q9P1W9); test: Inhibition of recombinant human full length GST-tagged PIM2 expressed in insect cells at 2 uM using Ser/Thr 07 as substrate measured after 1 hr by Z'-LYTE assay relative to control; conditions: Insect cell
# [19] = target: Tyrosine-protein kinase JAK2 (Homo sapiens) (UniProt O60674); test: Inhibition of recombinant human GST-tagged JAK2 (809-1153 +9 residues) expressed in insect cells at 2 uM using Tyr 06 as substrate measured after 1 hr by Z'-LYTE assay relative to control; conditions: Insect cell
# [20] = test system: Proto-oncogene tyrosine-protein kinase receptor Ret (Homo sapiens), P07949 [Y791F]; test: Inhibition of recombinant human GST-tagged RET Y791F mutant (658-1114 residues) expressed in baculovirus expression system at 2 uM using Tyr 02 as substrate measured after 1 hr by Z'-LYTE assay relative to control
# Proto-oncogene tyrosine-protein kinase receptor Ret (Homo sapiens), P07949 [Y791F], sequence (P07949 whole entry Y791F, the tested form may be a part): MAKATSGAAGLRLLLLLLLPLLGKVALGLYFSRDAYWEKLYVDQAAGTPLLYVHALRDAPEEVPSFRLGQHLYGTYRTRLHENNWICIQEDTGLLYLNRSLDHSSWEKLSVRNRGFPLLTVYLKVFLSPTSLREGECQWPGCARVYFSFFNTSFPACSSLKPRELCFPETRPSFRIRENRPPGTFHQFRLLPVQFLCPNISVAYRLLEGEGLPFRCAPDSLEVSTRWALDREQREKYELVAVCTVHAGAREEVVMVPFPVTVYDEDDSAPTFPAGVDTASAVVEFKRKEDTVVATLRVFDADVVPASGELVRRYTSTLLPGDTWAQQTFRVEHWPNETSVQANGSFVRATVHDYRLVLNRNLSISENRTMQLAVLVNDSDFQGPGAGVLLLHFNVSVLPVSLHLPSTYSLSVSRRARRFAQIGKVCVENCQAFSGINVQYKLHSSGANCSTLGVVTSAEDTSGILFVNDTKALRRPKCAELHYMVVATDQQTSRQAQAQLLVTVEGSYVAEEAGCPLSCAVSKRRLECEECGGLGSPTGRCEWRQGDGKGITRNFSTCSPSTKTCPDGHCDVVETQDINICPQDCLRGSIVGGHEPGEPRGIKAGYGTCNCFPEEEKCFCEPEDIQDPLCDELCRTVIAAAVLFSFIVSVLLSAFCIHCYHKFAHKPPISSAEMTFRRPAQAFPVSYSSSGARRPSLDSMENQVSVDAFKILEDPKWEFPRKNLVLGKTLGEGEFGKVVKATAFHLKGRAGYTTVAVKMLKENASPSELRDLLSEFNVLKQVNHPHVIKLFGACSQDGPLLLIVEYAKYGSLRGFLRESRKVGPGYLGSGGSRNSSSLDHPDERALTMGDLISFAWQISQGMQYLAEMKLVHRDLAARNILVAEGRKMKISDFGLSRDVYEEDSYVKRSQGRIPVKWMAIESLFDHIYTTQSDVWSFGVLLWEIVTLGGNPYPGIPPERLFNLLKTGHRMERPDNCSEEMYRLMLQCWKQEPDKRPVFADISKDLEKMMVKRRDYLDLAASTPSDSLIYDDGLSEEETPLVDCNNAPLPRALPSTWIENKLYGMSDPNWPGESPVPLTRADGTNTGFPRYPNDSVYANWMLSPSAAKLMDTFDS
# cGMP-dependent protein kinase 2 (Homo sapiens), sequence (Q13237 whole entry): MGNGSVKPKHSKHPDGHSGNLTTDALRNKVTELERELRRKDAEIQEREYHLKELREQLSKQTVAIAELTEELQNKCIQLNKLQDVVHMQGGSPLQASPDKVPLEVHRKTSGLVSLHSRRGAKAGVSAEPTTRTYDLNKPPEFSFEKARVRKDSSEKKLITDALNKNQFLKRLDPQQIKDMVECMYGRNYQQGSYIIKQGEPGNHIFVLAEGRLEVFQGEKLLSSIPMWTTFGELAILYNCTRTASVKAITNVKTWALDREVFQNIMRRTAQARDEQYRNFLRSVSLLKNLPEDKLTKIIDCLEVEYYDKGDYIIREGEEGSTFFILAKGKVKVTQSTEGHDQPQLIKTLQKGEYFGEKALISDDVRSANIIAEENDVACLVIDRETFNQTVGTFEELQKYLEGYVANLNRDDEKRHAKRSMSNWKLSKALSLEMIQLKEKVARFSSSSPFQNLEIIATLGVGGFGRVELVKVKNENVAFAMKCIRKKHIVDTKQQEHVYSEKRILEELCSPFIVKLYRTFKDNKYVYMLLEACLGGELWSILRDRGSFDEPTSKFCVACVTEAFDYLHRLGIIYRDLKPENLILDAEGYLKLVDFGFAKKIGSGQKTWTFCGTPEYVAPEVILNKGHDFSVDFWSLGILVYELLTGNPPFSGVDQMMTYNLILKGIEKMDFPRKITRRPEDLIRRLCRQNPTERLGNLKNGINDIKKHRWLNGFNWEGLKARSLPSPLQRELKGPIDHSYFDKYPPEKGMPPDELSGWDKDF
# Calcium/calmodulin-dependent protein kinase type IV (Homo sapiens), sequence (Q16566 whole entry): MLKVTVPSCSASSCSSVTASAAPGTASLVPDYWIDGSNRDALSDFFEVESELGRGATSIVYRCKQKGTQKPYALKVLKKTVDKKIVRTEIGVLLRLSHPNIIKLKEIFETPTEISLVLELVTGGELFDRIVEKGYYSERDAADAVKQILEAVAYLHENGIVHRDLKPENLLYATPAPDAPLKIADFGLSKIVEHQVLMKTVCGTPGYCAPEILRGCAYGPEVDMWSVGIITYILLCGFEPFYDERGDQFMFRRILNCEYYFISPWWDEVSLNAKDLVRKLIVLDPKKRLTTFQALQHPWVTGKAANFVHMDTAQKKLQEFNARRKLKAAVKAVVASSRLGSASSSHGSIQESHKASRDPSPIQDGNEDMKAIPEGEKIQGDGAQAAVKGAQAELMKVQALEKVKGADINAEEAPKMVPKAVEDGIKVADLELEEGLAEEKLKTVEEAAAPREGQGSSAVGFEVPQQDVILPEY
# Tyrosine-protein kinase JAK2 (Homo sapiens), sequence (O60674 whole entry, the tested form may be a part): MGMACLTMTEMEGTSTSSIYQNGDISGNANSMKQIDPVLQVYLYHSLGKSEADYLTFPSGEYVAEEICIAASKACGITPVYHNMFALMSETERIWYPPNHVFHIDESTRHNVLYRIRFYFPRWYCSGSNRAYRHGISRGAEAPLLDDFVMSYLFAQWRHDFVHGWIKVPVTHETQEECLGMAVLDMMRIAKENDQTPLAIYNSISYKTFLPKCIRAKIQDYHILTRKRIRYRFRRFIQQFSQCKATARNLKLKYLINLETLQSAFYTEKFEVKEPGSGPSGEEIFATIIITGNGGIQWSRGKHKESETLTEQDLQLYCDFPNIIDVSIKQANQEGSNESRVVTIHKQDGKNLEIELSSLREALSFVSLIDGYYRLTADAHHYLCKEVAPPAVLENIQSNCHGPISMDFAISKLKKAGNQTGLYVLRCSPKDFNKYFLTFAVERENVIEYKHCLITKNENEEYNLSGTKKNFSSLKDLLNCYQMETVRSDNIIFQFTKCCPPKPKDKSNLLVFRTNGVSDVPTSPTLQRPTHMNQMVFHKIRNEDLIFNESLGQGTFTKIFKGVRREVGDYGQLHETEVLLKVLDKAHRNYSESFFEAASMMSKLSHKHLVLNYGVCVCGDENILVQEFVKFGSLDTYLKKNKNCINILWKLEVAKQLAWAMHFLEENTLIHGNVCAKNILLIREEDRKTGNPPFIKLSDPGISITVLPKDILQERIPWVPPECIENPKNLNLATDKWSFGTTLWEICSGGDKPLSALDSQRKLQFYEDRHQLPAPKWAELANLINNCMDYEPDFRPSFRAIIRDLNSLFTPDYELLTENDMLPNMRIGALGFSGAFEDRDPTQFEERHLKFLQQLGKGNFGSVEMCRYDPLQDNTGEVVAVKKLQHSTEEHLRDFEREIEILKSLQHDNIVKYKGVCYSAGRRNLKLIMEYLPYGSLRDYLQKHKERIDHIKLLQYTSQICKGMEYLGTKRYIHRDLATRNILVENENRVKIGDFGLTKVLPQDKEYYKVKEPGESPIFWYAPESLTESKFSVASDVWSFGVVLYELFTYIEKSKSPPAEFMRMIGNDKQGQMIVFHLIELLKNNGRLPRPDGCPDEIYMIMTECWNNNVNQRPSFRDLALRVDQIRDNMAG
# Mitogen-activated protein kinase kinase kinase kinase 5 (Homo sapiens), sequence (Q9Y4K4 whole entry, looked up): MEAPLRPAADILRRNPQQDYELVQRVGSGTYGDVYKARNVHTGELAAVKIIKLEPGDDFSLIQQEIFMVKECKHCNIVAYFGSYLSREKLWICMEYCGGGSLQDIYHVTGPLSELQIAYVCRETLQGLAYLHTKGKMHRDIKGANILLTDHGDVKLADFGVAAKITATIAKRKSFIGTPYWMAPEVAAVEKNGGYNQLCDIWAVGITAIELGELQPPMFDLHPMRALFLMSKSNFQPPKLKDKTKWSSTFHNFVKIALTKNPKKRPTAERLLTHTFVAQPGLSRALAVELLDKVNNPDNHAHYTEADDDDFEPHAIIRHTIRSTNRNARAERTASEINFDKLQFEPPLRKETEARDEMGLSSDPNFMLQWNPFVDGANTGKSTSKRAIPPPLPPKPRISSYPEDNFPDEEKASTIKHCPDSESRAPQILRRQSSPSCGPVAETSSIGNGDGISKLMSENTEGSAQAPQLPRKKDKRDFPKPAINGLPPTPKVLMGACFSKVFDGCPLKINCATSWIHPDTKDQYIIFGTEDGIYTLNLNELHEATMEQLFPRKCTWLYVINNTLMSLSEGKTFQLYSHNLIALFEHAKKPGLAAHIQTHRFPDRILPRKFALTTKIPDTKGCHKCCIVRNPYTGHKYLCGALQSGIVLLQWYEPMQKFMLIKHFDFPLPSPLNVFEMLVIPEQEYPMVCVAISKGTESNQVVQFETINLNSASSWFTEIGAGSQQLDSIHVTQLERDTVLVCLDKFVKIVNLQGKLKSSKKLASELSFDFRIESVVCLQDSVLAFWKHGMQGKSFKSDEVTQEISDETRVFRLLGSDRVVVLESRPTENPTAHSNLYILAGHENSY
# Activin receptor type-1B (Homo sapiens), sequence (P36896 whole entry, the tested form may be a part): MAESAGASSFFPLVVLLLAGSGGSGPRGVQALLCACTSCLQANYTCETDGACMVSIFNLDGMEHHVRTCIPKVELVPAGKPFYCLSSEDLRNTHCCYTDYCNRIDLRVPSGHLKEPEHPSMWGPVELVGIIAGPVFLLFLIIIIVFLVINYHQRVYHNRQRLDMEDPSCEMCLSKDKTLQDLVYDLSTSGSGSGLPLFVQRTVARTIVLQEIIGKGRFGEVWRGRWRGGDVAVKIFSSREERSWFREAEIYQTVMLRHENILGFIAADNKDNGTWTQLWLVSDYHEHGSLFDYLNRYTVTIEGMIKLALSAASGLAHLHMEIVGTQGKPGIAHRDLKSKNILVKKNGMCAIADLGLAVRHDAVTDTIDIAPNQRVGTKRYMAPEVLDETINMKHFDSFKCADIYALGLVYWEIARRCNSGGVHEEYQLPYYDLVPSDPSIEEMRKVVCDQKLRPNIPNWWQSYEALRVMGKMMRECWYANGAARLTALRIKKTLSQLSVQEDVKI
smiles,measurement,setting,value
CNC(=O)Nc1ccc(-c2nc(N3CC4CCC(C3)O4)c3cnn(C4CCC5(CC4)OCCO5)c3n2)cc1,inhibition,[1],5%
same,inhibition,[2],1%
same,inhibition,[3],19%
same,Activity,MDA-MB-361 [4],Active
same,inhibition,[5],4%
same,Activity,HEK293,0.58
same,Activity,MDA-MB-361 [6],Active
same,Activity,MDA-MB-361 [7],59%
same,inhibition,[8],-1%
same,inhibition,[9],2%
same,inhibition,[10],9%
same,inhibition,[11],12%
same,Activity,A549,Active
same,Activity,LNCaP,Active
same,Activity,MDA-MB-361 [12],Active
same,inhibition,[13],-2%
same,inhibition,[14],3%
same,inhibition,[15],-1%
same,inhibition,mTORC2 (Homo sapiens),Active
same,Activity,HCT-116,Active
same,IC50,NCI-H1975,70 nM
same,inhibition,[16],-3%
same,Activity,MDA-MB-361 [17],Active
same,inhibition,[18],3%
same,inhibition,[19],-3%
same,inhibition,[20],2%
